In the supplement of paper PMC13380429:

Experiments:
[1] = test system: A549-ACE2 infected with SARS-CoV-2; assay: cell count relative to DMSO; higher = less toxic; details: 24 h
[2] = test system: Caco-2; assay: cell viability relative to DMSO; higher = less toxic; details: 72 h
[3] = test system: Calu-3; assay: as above; details: 72 h
[4] = test system: HepG2; assay: as above; details: 72 h
[5] = test system: U2OS; assay: as above; details: 72 h
[6] = test system: Vero E6; assay: as above; details: 72 h
[7] = test system: A549-ACE2 infected with SARS-CoV-2; assay: SARS-CoV-2 infection rate relative to DMSO; higher = more infection; details: 24 h
[8] = test system: A549-ACE2; assay: drug-induced phospholipidosis relative to tamoxifen; higher = more phospholipidosis
[9] = test system: A549-ACE2 infected with SARS-CoV-2; assay: morphology score (similarity to uninfected cells); higher = more like uninfected cells; details: 24 h
[10] = test system: Caco-2; assay: relative viability EC50 (midpoint between 100% and the lowest measured viability); higher = less toxic; details: 72 h
[11] = test system: Calu-3; assay: as above; details: 72 h
[12] = test system: HepG2; assay: as above; details: 72 h
[13] = test system: U2OS; assay: as above; details: 72 h
[14] = test system: Vero E6; assay: as above; details: 72 h
[15] = test system: Caco-2; assay: drug sensitivity score (DSS) for viability; higher = more toxic; extreme values may be limits of the assay; details: 72 h
[16] = test system: Calu-3; assay: as above; details: 72 h
[17] = test system: HepG2; assay: as above; details: 72 h
[18] = test system: U2OS; assay: as above; details: 72 h
[19] = test system: Vero E6; assay: as above; details: 72 h

COC(=O)C[C@](O)(CCCC(C)(C)O)C(=O)O[C@@H]1C(OC)=C[C@]23CCCN2CCc2cc4c(cc2[C@H]13)OCO4 [homoharringtonine]
Details	SARS-CoV-2 infection rate, [7] [%]	cell count, [1] [%]	cell viability, [2] [%]	cell viability, [3] [%]	cell viability, [4] [%]	cell viability, [5] [%]	cell viability, [6] [%]	morphology score, [9]
1 nM	–	–	99.3	93.4	98.4	104	92.4	–
10 nM	–	–	102	91.1	89.1	101	103	–
100 nM	–	–	61.8	60.1	29.4	23	82.1	–
0.3 µM	12	68	–	–	–	–	–	0.32
1000 nM	–	–	24.7	27.3	6	6.6	12.8	–
3 µM	16	49	–	–	–	–	–	0.26
10 µM	19	42	–	–	–	–	–	0.3
10000 nM	–	–	27.9	22	1	0.3	0.5	–
30 µM	15	30	–	–	–	–	–	0.33

Details	drug-induced phospholipidosis [%]
[8], 0.3 µM, 24 h	-2.95

Details	drug sensitivity score	relative viability EC50 [nM]
[10]	–	99
[11]	–	89.7
[12]	–	49.7
[13]	–	61.6
[14]	–	273
[15]	18.6	–
[16]	18.5	–
[17]	27	–
[18]	26.8	–
[19]	18.2	–

Nc1nccc(Oc2ccc(NC(=O)c3c[nH]cc(-c4ccc(F)cc4)c3=O)cc2F)c1Cl [metatinib]
Details	SARS-CoV-2 infection rate, [7] [%]	cell count, [1] [%]	cell viability, [2] [%]	cell viability, [3] [%]	cell viability, [4] [%]	cell viability, [5] [%]	morphology score, [9]
1 nM	–	–	100	91.4	104	96.2	–
10 nM	–	–	104	96.5	106	102	–
100 nM	–	–	92.6	95.5	101	100	–
0.3 µM	101	95	–	–	–	–	-0.24
1000 nM	–	–	104	95.3	85.6	99.2	–
3 µM	91	102	–	–	–	–	-0.08
10 µM	97	106	–	–	–	–	0.16
10000 nM	–	–	80	96.3	37.7	94.9	–
30 µM	60	60	–	–	–	–	0.34

drug-induced phospholipidosis [%], [8]
Details	0.3 µM	0.833333 µM	3.33333 µM	6.66667 µM	10 µM	30 µM
24 h	2.65	1.25	4.8	18.8	23.4	32.3
48 h	4.96	-2.22	-0.29	7.93	12.6	20.2
72 h	2.59	-0.924	2.59	8.07	10.8	22.5

Details	drug sensitivity score	relative viability EC50 [nM]
[10]	–	> 10000
[11]	–	> 10000
[12]	–	1610
[13]	–	> 10000
[15]	0.4	–
[16]	0	–
[17]	5.7	–
[18]	0	–

COc1c(C)c2c(c(O)c1C/C=C(\C)CCC(=O)OCCN1CCOCC1)C(=O)OC2 [mycophenolate-mofetil]
Details	SARS-CoV-2 infection rate, [7] [%]	cell count, [1] [%]	cell viability, [2] [%]	cell viability, [3] [%]	cell viability, [4] [%]	cell viability, [5] [%]	cell viability, [6] [%]	morphology score, [9]
1 nM	–	–	94.2	89.2	103	96.5	99	–
10 nM	–	–	101	102	101	97.9	98.4	–
100 nM	–	–	106	94.4	112	87.8	99.1	–
0.3 µM	97	102	–	–	–	–	–	0.22
1000 nM	–	–	76	85.1	61.6	73.5	75.1	–
3 µM	78	80	–	–	–	–	–	0.12
10 µM	81	94	–	–	–	–	–	0.22
10000 nM	–	–	51.3	53.1	29.2	22.8	31.3	–
30 µM	65	92	–	–	–	–	–	0.37

drug-induced phospholipidosis [%], [8]
Details	0.3 µM	0.833333 µM	3.33333 µM	6.66667 µM	10 µM	30 µM
24 h	-1.99	-10.6	-14.8	-15.8	-12.1	-11.3
48 h	0.05	-8.58	–	–	–	–
72 h	1.31	-1.93	–	–	–	–

Details	drug sensitivity score	relative viability EC50 [nM]
[12]	–	938
[13]	–	1440
[14]	–	1250
[15]	5.6	–
[16]	4.2	–
[17]	8.6	–
[18]	7.2	–
[19]	7.3	–

[O-][n+]1ccccc1[S-].[O-][n+]1ccccc1[S-].[Zn+2] [pyrithione-zinc]
Details	SARS-CoV-2 infection rate, [7] [%]	cell count, [1] [%]	cell viability, [2] [%]	cell viability, [3] [%]	cell viability, [4] [%]	cell viability, [5] [%]	cell viability, [6] [%]	morphology score, [9]
1 nM	–	–	91.4	102	97	102	98.8	–
10 nM	–	–	94.5	94.8	111	95.1	93.6	–
100 nM	–	–	69.8	94.6	102	97	94.4	–
0.3 µM	95	99	–	–	–	–	–	0.13
1000 nM	–	–	13.4	40.6	24.6	10.8	40	–
3 µM	76	4	–	–	–	–	–	0.14
10000 nM	–	–	22.9	18.8	-0.1	1.3	0.1	–

drug-induced phospholipidosis [%], [8]
Details	24 h	48 h	72 h
0.3 µM	-3.98	-0.06	2.15
0.833333 µM	2.2	–	–

Details	drug sensitivity score	relative viability EC50 [nM]
[10]	–	137
[11]	–	527
[12]	–	640
[13]	–	406
[14]	–	748
[15]	19.5	–
[16]	12	–
[17]	14.1	–
[18]	16.4	–
[19]	12.8	–
